# Measurements reported in PMC9800739, “Epigenetic drugs in somatostatin type 2 receptor radionuclide theranostics and radiation transcriptomics in mouse pheochromocytoma models” (Theranostics, 2023).
# “Also recorded” adds a separate entry of the source. Where two headings read alike, the source gives them in different places.
# Legend:
# MPC and MTT cells = assay: Viability assay (colorimetric tetrazolium dye); assay type: cell-based, mouse; settings: MPC and MTT cells (similar); three days after treatment start; two treatments at 24 h interval
# Method: Viability of cells seeded into collagen-coated 96-well microplates (6×10^4/cm^2) was measured three days after treatment start using a colorimetric tetrazolium dye assay [39]. Doxorubicin served as positive control.
# SSTR2 = target: T1, SSTR2 (Mus musculus, UniProt P30875); assay: [68Ga]Ga-DOTA-TATE radioligand uptake in cells; assay type: cell-based; settings: MPC cells; 37 °C; VPA 10^-3 mol/L; DAC 5×10^-7 mol/L; attributed to cytotoxic effects
# T1 construct: endogenous in cells; host or cells: MPC and MTT mouse pheochromocytoma cells (cell homogenates), untreated or treated with VPA + DAC
# T1 sequence (P30875 whole entry): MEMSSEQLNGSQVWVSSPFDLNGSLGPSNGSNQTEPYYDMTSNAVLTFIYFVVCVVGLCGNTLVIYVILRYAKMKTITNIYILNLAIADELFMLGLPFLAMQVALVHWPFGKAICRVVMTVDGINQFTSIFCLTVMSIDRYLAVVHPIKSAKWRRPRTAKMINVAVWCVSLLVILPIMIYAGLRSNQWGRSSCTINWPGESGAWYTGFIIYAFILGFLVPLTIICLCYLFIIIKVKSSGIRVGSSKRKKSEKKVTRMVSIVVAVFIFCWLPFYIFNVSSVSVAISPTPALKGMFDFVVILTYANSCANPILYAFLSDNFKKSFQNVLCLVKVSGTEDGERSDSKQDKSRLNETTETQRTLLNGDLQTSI
# Method: Cells were seeded into collagen-coated microplates or collagen-coated flasks 24 h before epigenetic treatment (ET) start and treated twice (24 h interval) with VPA and DAC, as single and combination doses, respectively. Treatment effects were investigated two to six days (d) after final ET. Preparation of epigenetic drugs is reported in Supplemental Information 1.1.
# Radionuclide production and supply are described in Supplemental Information 1.2.
# Cells were seeded into collagen-coated 24-well microplates (2.5×10^4/cm^2) and uptake of [^68Ga]Ga-DOTA-TATE was measured three and seven days after ET start. Cells were incubated with fresh cell culture medium containing 0.8 MBq/mL [^68Ga]Ga-DOTA-TATE (Am = 10 MBq/nmol), equivalent to 80 nmol/L, for 60 min at 4 °C or 37 °C. Cells were washed and lysed, and activity of cell lysates was measured as described previously. Total protein in cell lysates was measured using the Qubit protein assay (Thermo Fisher Scientific). Uptake of [^68Ga]Ga-DOTA-TATE was reported as % initial dose per mg of protein.
# MPC tumors = assay type: in vivo, mouse; settings: MPC
# Method: During anesthesia, animals were continuously warmed at 37°C. […] Animals were sacrificed using CO2 inhalation and cervical dislocation.
# 107 (30%), muscle (0%), kidneys (25%), and liver (35%).
# 116 attenuation. Images were post-processed and analyzed using ROVER (ABX). Three-
# 118 kidneys (15%), and liver (25%). […]
# MTT tumors = settings: for SUVmean tumor / SUVmax ratio tumor / muscle / SUVmax tumor / SUVmean ratio tumor / muscle: MTT
# Method: All animal experiments were carried out according to the guidelines of the German Regulations for Animal Welfare and have been approved by the local Ethical Committee for Animal Experiments. A number of 4×10^6 MPC or MTT cells were re-suspended in 40 µL of Dulbecco's phosphate-buffered saline and injected subcutaneously into the shoulder of 10-15 week-old female nude mice (Rj:NMRI-Foxn1^nu/nu, Janvier Labs, Le Genest-Saint-Isle, France). Prior to imaging procedures, general anesthesia was induced and maintained with inhalation of 10% (v/v) desflurane in 30/10% (v/v) oxygen/air. During anesthesia, animals were continuously warmed at 37°C. Tumor growth was monitored three times per week using caliper measurements. Tumor volume was calculated assuming a tri-axial ellipsoid with the axes a, b, and c using the formula V = π/6×abc. Animals were sacrificed using CO2 inhalation and cervical dislocation.
# Preparation of epigenetic drugs is described in Supplemental Information 1.1. Animals received VPA (1.7×10^‒3 mol/kg ≈ 250 mg/kg), DAC ([…] ≈ 1 mg/kg), or a combination of both, in Dulbecco's phosphate buffered saline (200 µL/30 g body weight), delivered as two consecutive intraperitoneal injections in a 72 h-interval. Applied doses were within the epigenetically effective dose range in mice, as reported elsewhere, [41]-[43]. The estimated human equivalent doses corresponded to 20‒30% of the clinically applied tumor-suppressive doses in patients, [45]. Animals in control groups received Dulbecco's phosphate buffered saline only. Multiple independent experiments were performed, always including animals of all treatment groups (Table 1).
# Small animal positron emission tomography (PET) was performed using the nanoPET/CT scanner (Mediso Medical Imaging Systems, Budapest, Hungary). […] Recording, binning, framing, and image reconstruction were performed as reported previously. Dynamic imaging was performed for 60 min, static imaging between 40‒60 min after radiotracer injection. With each PET scan, a corresponding CT image was recorded and used for anatomical referencing and attenuation correction. […] Standardized uptake values (SUV) were determined and reported as SUVmean (VOI-averaged) and SUVmax (VOI-maximum). Details on quantitative PET image analysis are provided in Supplemental Information 1.4.
# 106 (VOIs) were created (40‒60 min frames) applying fixed thresholds for delineation of tumor
# 107 (30%), muscle (0%), kidneys (25%), and liver (35%). […]
smiles,measurement,setting,value
"Nc1ncn([C@H]2C[C@H](O)[C@@H](CO)O2)c(=O)n1 [DAC, 5-Aza-2'-deoxycytidine]",LD50,MPC and MTT cells,6.3e-07 mol/L
same,[68Ga]Ga-DOTA-TATE uptake (effect),SSTR2,impairment of [68Ga]Ga-DOTA-TATE uptake; also recorded: reduced radiotracer uptake at 37 °C
same,SUVmean tumor,"MPC tumors; [64Cu]Cu-DOTA-TATE, 40‒60 min p.i., day 1 after final ET, control or VPA 250 mg/kg, DAC 1 mg/kg days −3 and 0, mean ± SEM",7.38 ± 0.74
same,SUVmax ratio tumor / muscle,"MPC tumors; animal 1, 40‒60 min p.i.",57.8
same,SUVmax tumor,"MPC tumors; animal 1, 40‒60 min p.i.",11.5
same,SUVmean ratio tumor / muscle,"MPC tumors; animal 1, 40‒60 min p.i.",68.2
same,SUVmean tumor,"MPC tumors; animal 1, 40‒60 min p.i.",5.09
same,SUVmax ratio tumor / muscle,"MPC tumors; animal 2, 40‒60 min p.i.",65.6
same,SUVmax tumor,"MPC tumors; animal 2, 40‒60 min p.i.",13.9
same,SUVmean ratio tumor / muscle,"MPC tumors; animal 2, 40‒60 min p.i.",96.7
same,SUVmean tumor,"MPC tumors; animal 2, 40‒60 min p.i.",6.74
same,SUVmax ratio tumor / muscle,"MPC tumors; animal 3, 40‒60 min p.i.",58.7
same,SUVmax tumor,"MPC tumors; animal 3, 40‒60 min p.i.",15.3
same,SUVmean ratio tumor / muscle,"MPC tumors; animal 3, 40‒60 min p.i.",93.2
same,SUVmean tumor,"MPC tumors; animal 3, 40‒60 min p.i.",7.52
same,SUVmax ratio tumor / muscle,"MPC tumors; animal 4, 40‒60 min p.i.",69.1
same,SUVmax tumor,"MPC tumors; animal 4, 40‒60 min p.i.",15.2
same,SUVmean ratio tumor / muscle,"MPC tumors; animal 4, 40‒60 min p.i.",80.6
same,SUVmean tumor,"MPC tumors; animal 4, 40‒60 min p.i.",7.99
same,SUVmax ratio tumor / muscle,"MPC tumors; animal 5, 40‒60 min p.i.",67.9
same,SUVmax tumor,"MPC tumors; animal 5, 40‒60 min p.i.",20.6
same,SUVmean ratio tumor / muscle,"MPC tumors; animal 5, 40‒60 min p.i.",104
same,SUVmean tumor,"MPC tumors; animal 5, 40‒60 min p.i.",9.57
same,SUVmax ratio tumor / muscle,"MPC tumors; as SUVmean, mean ± SEM",63.8 ± 2.35
same,SUVmax tumor,"MPC tumors; as SUVmean, mean ± SEM",15.3 ± 1.49
same,SUVmean ratio tumor / muscle,"MPC tumors; as SUVmean, mean ± SEM",88.6 ± 6.39
same,increase of average SUVmean of tumors vs control cohort,"MTT tumors; MTT tumors, VPA 250 mg/kg, DAC 1 mg/kg, single or combination, i.p. twice at 72 h interval, DAC P < 0.05, combination P < 0.01",1.7 fold
same,SUVmean tumor,"MTT tumors; [64Cu]Cu-DOTA-TATE, 40‒60 min p.i., day 1 after final ET, control or VPA 250 mg/kg, DAC 1 mg/kg days −3 and 0, mean ± SEM, DAC P < 0.05, VPA+DAC P < 0.001",0.88 ± 0.13
same,SUVmax ratio tumor / muscle,"MTT tumors; animal 1, 40‒60 min p.i.",4.01
same,SUVmax tumor,"MTT tumors; animal 1, 40‒60 min p.i.",0.83
same,SUVmean ratio tumor / muscle,"MTT tumors; animal 1, 40‒60 min p.i.",4.91
same,SUVmean tumor,"MTT tumors; animal 1, 40‒60 min p.i.",0.38
same,SUVmax ratio tumor / muscle,"MTT tumors; animal 2, 40‒60 min p.i.",6.62
same,SUVmax tumor,"MTT tumors; animal 2, 40‒60 min p.i.",1.52
same,SUVmean ratio tumor / muscle,"MTT tumors; animal 2, 40‒60 min p.i.",7.82
same,SUVmean tumor,"MTT tumors; animal 2, 40‒60 min p.i.",0.65
same,SUVmax ratio tumor / muscle,"MTT tumors; animal 3, 40‒60 min p.i.",5.31
same,SUVmax tumor,"MTT tumors; animal 3, 40‒60 min p.i.",1.66
same,SUVmean ratio tumor / muscle,"MTT tumors; animal 3, 40‒60 min p.i.",8.27
same,SUVmean tumor,"MTT tumors; animal 3, 40‒60 min p.i.",0.77
same,SUVmax ratio tumor / muscle,"MTT tumors; animal 4, 40‒60 min p.i.",11.0
same,SUVmax tumor,"MTT tumors; animal 4, 40‒60 min p.i.",2.00
same,SUVmean ratio tumor / muscle,"MTT tumors; animal 4, 40‒60 min p.i.",12.6
same,SUVmean tumor,"MTT tumors; animal 4, 40‒60 min p.i.",0.80
same,SUVmax ratio tumor / muscle,"MTT tumors; animal 5, 40‒60 min p.i.",7.68
same,SUVmax tumor,"MTT tumors; animal 5, 40‒60 min p.i.",1.88
same,SUVmean ratio tumor / muscle,"MTT tumors; animal 5, 40‒60 min p.i.",11.5
same,SUVmean tumor,"MTT tumors; animal 5, 40‒60 min p.i.",0.93
same,SUVmax ratio tumor / muscle,"MTT tumors; animal 6, 40‒60 min p.i.",14.7
same,SUVmax tumor,"MTT tumors; animal 6, 40‒60 min p.i.",2.71
same,SUVmean ratio tumor / muscle,"MTT tumors; animal 6, 40‒60 min p.i.",17.9
same,SUVmean tumor,"MTT tumors; animal 6, 40‒60 min p.i.",1.24
same,SUVmax ratio tumor / muscle,"MTT tumors; animal 7, 40‒60 min p.i.",18.9
same,SUVmax tumor,"MTT tumors; animal 7, 40‒60 min p.i.",2.72
same,SUVmean ratio tumor / muscle,"MTT tumors; animal 7, 40‒60 min p.i.",21.3
same,SUVmean tumor,"MTT tumors; animal 7, 40‒60 min p.i.",1.37
same,SUVmax ratio tumor / muscle,"MTT tumors; as SUVmean, mean ± SEM",9.74 ± 2.05
same,SUVmean ratio tumor / muscle,"MTT tumors; as SUVmean, mean ± SEM, DAC P < 0.05",12.1 ± 2.2
same,SUVmax tumor,"MTT tumors; as SUVmean, mean ± SEM, VPA+DAC P < 0.01",1.90 ± 0.25
same,percentage of MTT responders (SUV),"MTT tumors; n = 7 per cohort, threshold control mean + 2×TE",57%
